From patent US20090098195A1 (priority 2004, published 2009)
Where “and” joins values, the source holds several entries; their conditions need not be identical. Equal entries are not always repeated. Where two headings read alike, the source gives them in different places.

Key:
[1] = type: binding; conditions: LacCer monolayer, QCM
[2] = type: binding; conditions: GalCer monolayer, QCM
[3] = type: binding; conditions: 6′GM3 monolayer, QCM
[4] = type: binding; conditions: GM3 monolayer, QCM
[5] = test system: influenza virus A/PR/8/34 (H1N1); type: cell-based; conditions: liposomes containing the peptide; egg PC concentration of 1 mM (peptide concentration: 0.15 mM); vs liposome without peptide
[6] = type: binding; conditions: QCM; data not shown

RAVWRHSVATPSHSV [c03-peptide, H-RAVWRHSVATPSHSV-NH2]
Kd [1]: 5.9 ± 1.2 µM | Δmmax (maximum binding amount) [1]: 37 ± 1.8 ng cm^−2 | Δmmax (maximum binding amount) [2]: <3 ng cm^−2 | Kd [3]: 7 ± 2.2 µM | Δmmax (maximum binding amount) [3]: 56 ± 3.1 ng cm^−2 | Kd [4]: 340 nM | Δmmax (maximum binding amount) [4]: 11 ng cm^−2 and 11 ± 0.1 ng cm^−2 | percent inhibition of infection [5]: 94%

H-AETVESCLAKPHTEN-NH2 [control peptide]
binding to glycosphingolipids [6]: bound to none of the glycosphingolipids

ARLSPTMVHPRGAQP [A1 peptide, reference compound]
percent inhibition of infection [5]: 76%

GWWYKGRARPVSAVA [c01-peptide, H-GWWYKGRARPVSAVA-NH2]
Kd [1]: 4.8 ± 1.6 µM | Δmmax (maximum binding amount) [1]: 74 ± 5.2 ng cm^−2 | Kd [2]: 13 ± 3.3 µM | Δmmax (maximum binding amount) [2]: 64 ± 4.5 ng cm^−2 | Kd [3]: 4 ± 1.1 µM | Δmmax (maximum binding amount) [3]: 93 ± 4.6 ng cm^−2 | Kd [4]: 1800 nM | Δmmax (maximum binding amount) [4]: 46 ng cm^−2 and 46 ± 2.4 ng cm^−2 | percent inhibition of infection [5]: 83%
